Assay results reported in ChEMBL document CHEMBL5724914, “Linking interpersonal differences in gut microbiota composition and drug biotransformation activity” (2024).

How the values were obtained:
[1] = (§1) The drug is tested on Z-004 corresponding to metagenome with ENA study accession number: PRJEB37062 and ENA sample accession number: ERS12561804 for biotransformation under anaerobic condition. The drug concentrations were measured over 9 timepoints collected between 0 and 24 hours of incubation by liquid-chromatography-coupled mass spectrometry (LC–MS); conditions: 2 µM
[2] = (§2) The drug is tested on Z-006 corresponding to mouse gut metagenome with ENA study accession number: PRJEB37062 and ENA sample accession number: ERS12561806 for biotransformation under anaerobic condition. The drug concentrations were measured over 9 timepoints collected between 0 and 24 hours of incubation by liquid-chromatography-coupled mass spectrometry (LC–MS); conditions: 2 µM
[3] = human gut metagenome, 24 h, 2 µM
[4] = as §1, with “Z-023” for “Z-004”, “ERS12561822” for “ERS12561804”; conditions: 2 µM
[5] = human gut metagenome, 24 h, 2 µM; remark: listed apart in the source
[6] = human gut metagenome, 24 h, 2 µM; remark: listed apart in the source
[7] = human gut metagenome, 24 h, 2 µM; remark: listed apart in the source
[8] = as §2, with “Z-009” for “Z-006”, “pig” for “mouse”, “ERS12561809” for “ERS12561806”; conditions: 2 µM
[9] = as §2, with “Z-002” for “Z-006”, “rabbit” for “mouse”, “ERS12561802” for “ERS12561806”; conditions: 2 µM
[10] = as §2, with “Z-030” for “Z-006”, “ERS12561829” for “ERS12561806”; conditions: 2 µM
[11] = human gut metagenome, 24 h, 2 µM; remark: listed apart in the source
[12] = as §2, with “WLS-006” for “Z-006”, “human” for “mouse”, “ERS12561741” for “ERS12561806”; conditions: 2 µM
[13] = as §1, with “Z-005” for “Z-004”, “ERS12561805” for “ERS12561804”; conditions: 2 µM
[14] = human gut metagenome, 24 h, 2 µM; remark: listed apart in the source
[15] = human gut metagenome, 24 h, 2 µM; remark: listed apart in the source
[16] = as §2, with “WLS-038” for “Z-006”, “human” for “mouse”, “ERS12561745” for “ERS12561806”; conditions: 2 µM
[17] = as §1, with “Z-026” for “Z-004”, “ERS12561825” for “ERS12561804”; conditions: 2 µM
[18] = as §2, with “Z-013” for “Z-006”, “rabbit” for “mouse”, “ERS12561813” for “ERS12561806”; conditions: 2 µM
[19] = human gut metagenome, 24 h, 2 µM; remark: listed apart in the source
[20] = as §1, with “Z-021” for “Z-004”, “ERS12561820” for “ERS12561804”; conditions: 2 µM
Note: call rule not given here.

Row | SMILES | Bacterial Biotransformation [1] | Bacterial Biotransformation [2] | Bacterial Biotransformation [3] | Bacterial Biotransformation [4] | Bacterial Biotransformation [5] | Bacterial Biotransformation [6] | Bacterial Biotransformation [7] | Bacterial Biotransformation [8] | Bacterial Biotransformation [9] | Bacterial Biotransformation [10] | Bacterial Biotransformation [11] | Bacterial Biotransformation [12] | Bacterial Biotransformation [13] | Bacterial Biotransformation [14] | Bacterial Biotransformation [15] | Bacterial Biotransformation [16] | Bacterial Biotransformation [17] | Bacterial Biotransformation [18] | Bacterial Biotransformation [19] | Bacterial Biotransformation [20]
1 | CN(C)CCC=C1c2ccccc2COc2ccccc21 [DOXEPIN] | Compound NOT metabolized | Compound NOT metabolized | Compound metabolized | Compound metabolized | Compound metabolized | Compound metabolized | Compound metabolized | Compound metabolized | Compound NOT metabolized | Compound NOT metabolized | Compound NOT metabolized | Compound NOT metabolized | Compound NOT metabolized | Compound NOT metabolized | Compound NOT metabolized | Compound NOT metabolized | Compound NOT metabolized | Compound NOT metabolized | Compound NOT metabolized | Compound NOT metabolized
2 | CC(C)c1c(CN(C)C(C)Cc2ccccc2)n(C)n(-c2ccccc2)c1=O (stereo not given) [FAMPROFAZONE] | Compound metabolized | Compound metabolized | Compound metabolized | Compound metabolized | Compound metabolized | Compound metabolized | Compound metabolized | Compound metabolized | Compound metabolized | Compound NOT metabolized | Compound metabolized | Compound metabolized | Compound metabolized | Compound metabolized | Compound NOT metabolized | Compound metabolized | Compound NOT metabolized | Compound metabolized | Compound metabolized | Compound metabolized
3 | N=C(N)NC(=O)Cc1c(Cl)cccc1Cl [GUANFACINE] | Compound NOT metabolized | Compound NOT metabolized | Compound NOT metabolized | Compound NOT metabolized | Compound NOT metabolized | Compound NOT metabolized | Compound NOT metabolized | Compound NOT metabolized | Compound NOT metabolized | Compound NOT metabolized | Compound NOT metabolized | Compound NOT metabolized | Compound NOT metabolized | Compound NOT metabolized | Compound NOT metabolized | Compound NOT metabolized | Compound NOT metabolized | Compound NOT metabolized | Compound NOT metabolized | Compound NOT metabolized
4 | Nc1nc(N)nc(-c2cc(Cl)ccc2Cl)n1.O=C(O)/C=C\C(=O)O [IRSOGLADINE MALEATE] | Compound NOT metabolized | Compound NOT metabolized | Compound NOT metabolized | Compound NOT metabolized | Compound NOT metabolized | Compound NOT metabolized | Compound NOT metabolized | Compound NOT metabolized | Compound NOT metabolized | Compound NOT metabolized | Compound NOT metabolized | Compound NOT metabolized | Compound NOT metabolized | Compound NOT metabolized | Compound NOT metabolized | Compound NOT metabolized | Compound NOT metabolized | Compound NOT metabolized | Compound NOT metabolized | Compound NOT metabolized

The remaining lines, values ahead:

Row | Bacterial Biotransformation [1] | Bacterial Biotransformation [2] | Bacterial Biotransformation [3] | Bacterial Biotransformation [4] | Bacterial Biotransformation [5] | Bacterial Biotransformation [6] | Bacterial Biotransformation [7] | Bacterial Biotransformation [8] | Bacterial Biotransformation [9] | Bacterial Biotransformation [10] | Bacterial Biotransformation [11] | Bacterial Biotransformation [12] | Bacterial Biotransformation [13] | Bacterial Biotransformation [14] | Bacterial Biotransformation [15] | Bacterial Biotransformation [16] | Bacterial Biotransformation [17] | Bacterial Biotransformation [18] | Bacterial Biotransformation [19] | Bacterial Biotransformation [20] | SMILES
5 | Compound NOT metabolized | Compound metabolized | Compound metabolized | Compound NOT metabolized | Compound metabolized | Compound metabolized | Compound metabolized | Compound metabolized | Compound metabolized | Compound metabolized | Compound NOT metabolized | Compound metabolized | Compound metabolized | Compound metabolized | Compound metabolized | Compound metabolized | Compound NOT metabolized | Compound metabolized | Compound metabolized | Compound metabolized | CC(=O)OCC(=O)[C@@]1(OC(C)=O)[C@@H](C)C[C@H]2[C@@H]3C[C@H](F)C4=CC(=O)C=C[C@]4(C)[C@@]3(F)[C@@H](O)C[C@@]21C [DIFLORASONE DIACETATE]
6 | Compound NOT metabolized | Compound metabolized | Compound NOT metabolized | Compound metabolized | Compound NOT metabolized | Compound metabolized | Compound NOT metabolized | Compound metabolized | Compound metabolized | Compound NOT metabolized | Compound NOT metabolized | Compound metabolized | Compound metabolized | Compound NOT metabolized | Compound NOT metabolized | Compound metabolized | Compound NOT metabolized | Compound metabolized | Compound metabolized | Compound metabolized | C[C@]12CCC(=O)C=C1[C@@H]1C[C@@H]1[C@H]1[C@@H]3[C@@H]4C[C@@H]4[C@@]4(CCC(=O)O4)[C@@]3(C)CC[C@@H]12 [DROSPIRENONE]
7 | Compound metabolized | Compound metabolized | Compound metabolized | Compound metabolized | Compound metabolized | Compound metabolized | Compound metabolized | Compound metabolized | Compound metabolized | Compound metabolized | Compound NOT metabolized | Compound metabolized | Compound metabolized | Compound metabolized | Compound metabolized | Compound metabolized | Compound metabolized | Compound metabolized | Compound metabolized | Compound metabolized | C#C[C@]1(OC(C)=O)CC[C@H]2[C@@H]3CCC4=C[C@@H](OC(C)=O)CC[C@@H]4[C@H]3CC[C@@]21C [ETHYNODIOL DIACETATE]
8 | Compound NOT metabolized | Compound NOT metabolized | Compound NOT metabolized | Compound NOT metabolized | Compound metabolized | Compound NOT metabolized | Compound metabolized | Compound metabolized | Compound NOT metabolized | Compound NOT metabolized | Compound NOT metabolized | Compound metabolized | Compound NOT metabolized | Compound NOT metabolized | Compound NOT metabolized | Compound NOT metabolized | Compound NOT metabolized | Compound NOT metabolized | Compound metabolized | Compound NOT metabolized | CN1CCC(=C2c3ccccc3CC(=O)c3sccc32)CC1.O=C(O)/C=C/C(=O)O [KETOTIFEN FUMARATE]
